Read-outs that look alike come from different tables or passages of the source. Blank lines part the entries; values can stand above or below the compound they belong to.
How the values were obtained:
PCA response = assay: Passive Cutaneous Anaphylaxis (rat PCA); format: in vivo; conditions: iv, i.v. just before ovalbumin challenge, male Wistar rats
Experimental: Serum containing heat labile homocytotropic antibody was raised in rats to crystallized ovalbumin XOA by the method of Mota (I. Mota, Immunology, 7, 681 (1964)) using Bordettela pertussis vaccine as adjuvant.
Passive cutaneous anaphylaxis (PCA) was carried out by a method based on that of Ovary and Bier (A. Ovary and O. G. Bier, Proc. Soc. Exp. Biol. Med 81, 584, (1952)) as modified by Goose and Blair.
Male Wistar rats of 250-300 g were given 0.1 ml of each of six twofold serial dilutions of pooled antiserum in 0.9% saline injected intradermally into separate sites on their shaved backs. Later (72 hr) the animals were challenged by intravenous injection of 0.3 ml of a 1% solution of ovalbumin in an isotonic solution of saline buffered with 0.5M, pH 7.2, Sorenson Buffer (PBS), mixed with 0.2 ml of a 5% solution of Pontamine Sky Blue (6BX C.I. 24410, Raymond A. Lamb, London) in isotonic saline. The rats were killed after 20 min and the diameter of the blue wheals at the antibody injection sites was measured on the outer surface of the skin. The starting dilution of the serum was adjusted so that there was no response, after challenge, at the injection site of the highest dilution and a maximum response at the lowest dilutions. Typically six twofold serial dilutions of the serum from 1/4 to 1/128 were used.
Compounds were tested for their ability to reduce the diameter of the wheels at those intradermal sites which in control animals gave less than maximum response. Each dose of the compound was administered intravenously to six rats in isotonic saline, adjusted to pH7 with sodium bicarbonate if necessary (2ml/kg body weight) just before intravenous challenge with ovalbumin. Control groups of six animals were given the same volume of carrier fluid at the same time.
The results were calculated as follows. % inhibition of PCA=100 (1 - a/b) where a=the sum of the diameters of the wheals produced in the test animal at the sites of antibody dilutions as used in control groups and b=the mean sum of the diameters of the wheals produced in the control group of animals at those antibody sites where at least five out of six of the animals gave less than maximum response. A typical variation in the control group of animals was SEN±6%.
The dose of the compound required to inhibit the PCA response by 50% was obtained from the log dose-response curve.

[1] = system: slow reacting substance of anaphylaxis (SRS-A); assay: SRS-A antagonism on isolated guinea pig ileum; set-up: species or system guinea pig ileum (SRS-A from rat); conditions: rat SRS-A
Description: The compounds have been evaluated as direct antagonists of slow reacting substance of anaphylaxis (SRS-A) by assay using the isolated guinea pig ileum.
SRS-A rat was obtained from the peritoneal cavity of the rat after passive peritoneal anaphylaxis by a method based on that of R. P. Orange, D. J. Stechschulte and K. F. Austen, J. Immunology, 105 1087 (1970) as described by B. A. Spicer, J. W. Ross and H. Smith, Clin. exp. Immunol. 1975, 21, 419. The sensitizing serum containing reaginic antibody was produced in rats as described by B. A. Spicer, et. al. ibid.
2 ml of a 1 in 5 dilution of the sensitizing serum was injected by the peritoneal route into recipient rats and after 2 hours, 5 ml of tyrode solution containing 0.4 mg/ml ovalbumin (Sigma Grade III) and 50 μg/ml heparin was injected by the same route. Five minutes after challenge the rats were stunned and bled and the peritoneal fluids collected into polycarbonate tubes in ice. After centrifugation at 150 g for 5 minutes the supernatants were combined, heated in a boiling water bath for 5 minutes, cooled and stored at -20° C. The combined peritioneal fluids contained SRS-A and were used in the antagonism studies.
The SRS-A assays were carried out on isolated strips of guinea pig ileum in tyrode solution containing atropine 5 × 10^-7 M and mepyramine 10^-6 M as described by W. E. Brocklehurst, J. Physiology, 151, 416 (1960).
The activity of the antagonists was determined by their ability to reduce submaximal responses induced by SRS-A. The antagonists were added to a 4 ml bath in 0.1 ml volumes in aqueous solution half a minute before the addition of SRS-A and were present during induced contraction. Two or three concentrations of antagonists were used and the percentage inhibition of the SRS-A response plotted against the bath concentration of antagonist. The line of best fit was drawn and the concentration to cause 50% inhibition IC50 read graphically.

[2] = read-out: Rat PCA: Dose given i.v. to effect a 50% inhibition of the PCA response
[3] = as first table, unit inferred, isolated guinea pig ileum, read-out: SRS-A antagonism on Guinea Pig Ileum: Approximate concentration to give inhibition of a than maximal response to SRS-A
[4] = isolated guinea pig ileum strips, tyrode with atropine and mepyramine, 50% inhibition per method, read-out: SRS-A antagonism on Guinea Pig Ileum: Approximate concentration to give inhibition of a than maximal response to SRS-A
[5] = second results table, unit inferred, isolated guinea pig ileum, read-out: SRS-A antagonism on Guinea Pig ileum: Approximate concentration to give 50% inhibition of a less than maximal response to SRS-A
[6] = second results table, read-out: Rat PCA: Dose given i.v. to effect a 50% inhibition of PCA response

Structure (SMILES): O=c1oc2cc(OCCc3ccc(F)cc3)ccc2c(O)c1[N+](=O)[O-] [Example 117]
ED50 (PCA response; [2]): 1 mg/kg

Structure (SMILES): CCCc1c(OCCOc2ccc3c(O)c([N+](=O)[O-])c(=O)oc3c2)ccc(C(C)=O)c1O [Example 127, 7-(2-[4-Acetyl-3-hydroxy-2-n-propylphenoxy]ethoxy)-4-hydroxy-3-nitrocoumarin]
ED50 (PCA response; [2]): ~2 mg/kg

Structure (SMILES): CCCc1cc(C(C)=O)ccc1OCC(O)COc1ccc2c(O)c([N+](=O)[O-])c(=O)oc2c1 (stereo not drawn) [Example 142, 7-(3-[4-Acetyl-2-n-propylphenoxy]-2-hydroxypropoxy)-4-hydroxy-3-nitrocoumarin]
ED50 (PCA response; [2]): < 1 mg/kg

Structure (SMILES): CCc1cc(C(C)=O)c(O)cc1OCC(O)COc1ccc2c(O)c([N+](=O)[O-])c(=O)oc2c1 (stereo not drawn) [Example 145, 7-(3-[4-Acetyl-2-ethyl-5-hydroxy-phenoxy]-2-hydroxy-propoxy)-4-hydroxy-3-nitrocoumarin]
ED50 (PCA response; [2]): 2 mg/kg

Structure (SMILES): CCCc1c(OCC(O)COc2ccc3c(O)c([N+](=O)[O-])c(=O)oc3c2C)ccc(C(C)=O)c1O (stereo not drawn) [Example 147, 7-(3-[4-Acetyl-3-hydroxy-2-n-propyl-phenoxy]-2-hydroxy-propoxy)-4-hydroxy-8-methyl-3-nitro-coumarin]
IC50 [1, 3]: 10 nM
ED50 (PCA response; [2]): < 2 mg/kg

Structure (SMILES): CCCc1c(OCC(O)COc2ccc3c(O)c([N+](=O)[O-])c(=O)oc3c2CCC)ccc(C(C)=O)c1O (stereo not drawn) [Example 148, 7-(3-[4-Acetyl-3-hydroxy-2-n-propyl-phenoxy]-2-hydroxy-propoxy)-4-hydroxy-3-nitro-8-n-propyl-coumarin]
IC50 [1, 4]: 100 nM
ED50 (PCA response; [2]): < 1 mg/kg

Structure (SMILES): CCCc1c(OCC(O)COc2ccc3c(O)c([N+](=O)[O-])c(=O)oc3c2)ccc(C(=O)CC)c1O (stereo not drawn) [Example 149]
ED50 (PCA response; [2]): 2 mg/kg

Structure (SMILES): O=c1oc2cc(OCCCCCCOc3ccccc3)ccc2c(O)c1[N+](=O)[O-] [Example 154, 4-Hydroxy-3-nitro-7-(6-phenoxyhexoxy) coumarin]
IC50 [1, 4]: 10000 nM
ED50 (PCA response; [2]): 1 to 2 mg/kg

Structure (SMILES): CCCc1c(O)c(C(C)=O)cc([N+](=O)[O-])c1OCCOc1ccc2c(O)c([N+](=O)[O-])c(=O)oc2c1 [Example 165, 7-[2-(4-Acetyl-3-hydroxy-6-nitro-2-n-propylphenoxy)ethoxy]-4-hydroxy-3-nitrocoumarin]
ED50 (PCA response; [2]): 1 mg/kg

Structure (SMILES): CCCc1c(O)c(C(C)=O)cc([N+](=O)[O-])c1OCC(O)COc1ccc2c(O)c([N+](=O)[O-])c(=O)oc2c1C (stereo not drawn) [Example 166, 7-[3-(4-Acetyl-3-hydroxy-6-nitro-2-n-propylphenoxy)-2-hydroxypropoxy]-4-hydroxy-8-methyl-3-nitrocoumarin]
IC50 [1, 3]: 100 nM
ED50 (PCA response; [2]): < 1 mg/kg

Structure (SMILES): O=C1c2ccc(OCCCc3ccccc3)cc2C(=O)C1[N+](=O)[O-] (stereo not drawn) [Example 183, 2-Nitro-5-(3-phenylpropoxy)indan-1,3-dione]
ED50 (PCA response; [6]): < 1 mg/kg

Further lines, with some results ahead:

IC50 [1, 4]: 100 nM
Structure (SMILES): Cc1ccccc1OCCCOc1ccc2c(O)c([N+](=O)[O-])c(=O)oc2c1 [Example 155, 4-Hydroxy-7-(3-[2-methylphenoxy]propoxy)-3-nitrocoumarin]
ED50 (PCA response; [2]): 1 to 2 mg/kg

IC50 [1, 3]: 100 nM
Structure (SMILES): CCCc1cc(F)ccc1OCC(O)COc1ccc2c(O)c([N+](=O)[O-])c(=O)oc2c1 (stereo not drawn) [Example 164, 7-(3-[4-Fluoro-2-hydroxypropoxy)-4-hydroxy-3-nitro-coumarin]
ED50 (PCA response; [2]): 1 mg/kg

IC50 [1, 5]: 100 nM
Structure (SMILES): O=C1c2ccc(OCCCOc3ccccc3)cc2C(=O)C1[N+](=O)[O-] (stereo not drawn) [Example 182, 2-Nitro-5-(3-phenoxypropoxy)indan-1,3-dione]
ED50 (PCA response; [6]): < 1 mg/kg

IC50 [1, 5]: 1000 nM
Structure (SMILES): Cc1cc(C)c(C)c(OCCCOc2ccc3c(c2)C(=O)C([N+](=O)[O-])C3=O)c1 (stereo not drawn) [Example 184, 2-Nitro-5-[3-(2,3,5-trimethylphenoxy)propoxy]indan-1,3-dione]
ED50 (PCA response; [6]): 1 mg/kg

IC50 [1, 5]: 1000 nM
Structure (SMILES): N#CC1C(=O)c2ccc(OCCCOc3ccccc3)cc2C1=O (stereo not drawn) [Example 188, 2-Cyano-5-(3-phenoxypropoxy)indan-1,3-dione]
ED50 (PCA response; [6]): > 2 mg/kg

IC50 [1, 5]: 1000 nM
Structure (SMILES): N#Cc1c(O)c2ccc(OCCCOc3ccccc3)cc2oc1=O [Example 204, 3-Cyano-4-hydroxy-7-(3-phenoxypropoxy) coumarin]
ED50 (PCA response; [6]): 2 mg/kg

— patent US4136192A, “4-Hydroxy-3-nitro (cyano) coumarins” (Beecham Group Limited, priority 1975, dated 1979)
